Assay results reported in patent US6160175A, “Naphthyl acetamides as sPLA2 inhibitors” (Eli Lilly and Company, priority 1996, dated 2000).

Molecular target: T1, recombinant human secreted phospholipase A2 (Homo sapiens, UniProt P14555)
T1 sequence (P14555 21-144): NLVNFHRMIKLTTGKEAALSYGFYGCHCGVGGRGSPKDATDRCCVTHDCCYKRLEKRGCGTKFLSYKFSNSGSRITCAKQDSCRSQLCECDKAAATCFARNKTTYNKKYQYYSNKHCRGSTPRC
Assay: Chromogenic assay; Human Secreted Phospholipase A2 Inhibition Tests
Type: biochemical
Conditions: racemic diheptanoyl thio-PC substrate 1 mM, Triton X-100 0.29 mM, pH 7.5, 40° C., 30 minutes, 405 nm; read-out: Inhibition of human secreted PLA2, IC50 ± mean deviation (3-4 tests)
Excerpt: The following chromogenic assay procedure was used to identify and evaluate inhibitors of recombinant human secreted phospholipase A2. The assay described herein has been adapted for high volume screening using 96 well microtiter plates. A general description of this assay method is found in the article, "Analysis of Human Synovial Fluid Phospholipase A2 on Short Chain Phosphatidylcholine-Mixed Micelles: Development of a Spectrophotometric Assay Suitable for a Microtiterplate Reader", by Laure J. Reynolds, Lori L. Hughes, and Edward A. Dennis, Analytical Biochemistry, 204, pp. 190-197, 1992 (the disclosure of which is incorporated herein by reference):
A measured volume of racemic dipheptanoyl thio PC supplied in chloroform at a concentration of 100 mg/ml is taken to dryness and redissolved in 10 millimolar TRITON X-100™ nonionic detergent aqueous solution. Reaction Buffer is added to the solution, then DTNB to give the Reaction Mixture.
The reaction mixture thus obtained contains 1 mM diheptanoly thio-PC substrate, 0.29 mm Triton X-100™ detergent, and 0.12 mm DTMB in a buffered aqueous solution at pH 7.5.
1. Add 0.2 ml reaction mixture to all wells;
2. Add 10 ul test compound (or solvent blank) to appropriate wells, mix 20 seconds;
3. Add 50 nanograms of sPLA2 (10 microliters) to appropriate wells;
4. Incubate plate at 40° C. for 30 minutes;
5. Read absorbance of wells at 405 nanometers with an automatic plate reader.
All compounds were tested in triplicate. Typically, compounds were tested at a final concentration of 5 ug/ml. […] Lack of color development at 405 nanometers evidenced inhibition. Compounds initially found to be active were reassayed to confirm their activity and, if sufficiently active, IC50 values were determined. […] In all cases, % inhibition measured at 405 nanometers generated by enzyme reactions containing inhibitors relative to the uninhibited control reactions was determined. […] IC50 were determined by plotting log concentration versus inhibition values in the range from 10-90% inhibition.

Row | IC50 | SMILES
1 | 0.87 µM | NC(=O)Cc1ccc(Cc2ccccc2)c2ccccc12 [Compound A, 4-Benzyl-1-naphphylacetamide]
2 | 51 µM | O=C(O)Cc1ccc(Oc2ccccc2)c2ccccc12 [Compound B, 4-Phenoxynaphth-1-yl acetic acid]
3 | 4.4 µM | NC(=O)Cc1ccc(Oc2ccccc2)c2ccccc12 [Compound C, 4-Phenoxynaphth-1-yl acetamide]
